Measured values: the NIST ThermoML archive (doi:10.1016/j.jct.2014.07.022)

Test: xn = mol fraction of the nth substance listed
Conditions: Gas, Spherical resonator

[C-]#[O+] [carbon monoxide] + N#N
Conditions | speed of sound [m/s]
273.04 K, 5000 kPa, x1 = 0.04999 | 345.57
273.04 K, 7995 kPa, x1 = 0.04999 | 354.43
273.05 K, 99 kPa, x1 = 0.04999 | 336.94
273.05 K, 995 kPa, x1 = 0.04999 | 337.99
273.05 K, 2997 kPa, x1 = 0.04999 | 341.18
273.05 K, 3989 kPa, x1 = 0.04999 | 343.2
273.05 K, 5997 kPa, x1 = 0.04999 | 348.21
273.05 K, 6998 kPa, x1 = 0.04999 | 351.18
273.11 K, 1992 kPa, x1 = 0.04999 | 339.44
273.16 K, 996 kPa, x1 = 0.1002 | 338.03
273.17 K, 1993 kPa, x1 = 0.1002 | 339.46
273.17 K, 2993 kPa, x1 = 0.1002 | 341.21
273.17 K, 4989 kPa, x1 = 0.1002 | 345.57
273.17 K, 6000 kPa, x1 = 0.1002 | 348.25
273.18 K, 3997 kPa, x1 = 0.1002 | 343.25
273.18 K, 6994 kPa, x1 = 0.1002 | 351.2
273.18 K, 8019 kPa, x1 = 0.1002 | 354.55
273.18 K, 8970 kPa, x1 = 0.1002 | 357.95
273.2 K, 9955 kPa, x1 = 0.1002 | 361.78
273.24 K, 9010 kPa, x1 = 0.04999 | 358.19
273.24 K, 9993 kPa, x1 = 0.04999 | 361.99
324.94 K, 117 kPa, x1 = 0.1002 | 367.62
324.94 K, 5998 kPa, x1 = 0.1002 | 381.69
324.94 K, 10006 kPa, x1 = 0.1002 | 394.85
324.95 K, 1001 kPa, x1 = 0.1002 | 369.33
324.95 K, 3002 kPa, x1 = 0.1002 | 373.73
324.95 K, 3998 kPa, x1 = 0.1002 | 376.19
324.95 K, 8963 kPa, x1 = 0.1002 | 391.17
324.96 K, 1989 kPa, x1 = 0.1002 | 371.42
324.96 K, 5002 kPa, x1 = 0.1002 | 378.87
324.96 K, 6999 kPa, x1 = 0.1002 | 384.73
324.96 K, 7996 kPa, x1 = 0.1002 | 387.92
324.99 K, 8000 kPa, x1 = 0.04999 | 387.94
325 K, 1002 kPa, x1 = 0.04999 | 369.31
325 K, 1991 kPa, x1 = 0.04999 | 371.4
325.01 K, 99 kPa, x1 = 0.04999 | 367.57
325.01 K, 3003 kPa, x1 = 0.04999 | 373.73
325.01 K, 4998 kPa, x1 = 0.04999 | 378.87
325.03 K, 3999 kPa, x1 = 0.04999 | 376.21
325.03 K, 5995 kPa, x1 = 0.04999 | 381.72
325.05 K, 9002 kPa, x1 = 0.04999 | 391.36
325.13 K, 10001 kPa, x1 = 0.04999 | 394.94
325.23 K, 7007 kPa, x1 = 0.04999 | 384.9
